According to patent publication US8633242B2, “Benzylidene indanones and processes for preparation and use thereof” (Council of Scientific and Industrial Research, priority 2011, dated 2014):

Columns and labels:
[1] = system: A549 (Lung); assay: Sulphorhodamine B cytotoxicity assay, A549; format: cell-based, human; set-up: key to Human cancer cell lines IC50, A549 (Lung): Inactive: inactive, if IC50 > 100 μM; conditions: for IC50 / Human cancer cell lines IC50, A549 (Lung): SRB assay, 48 hours incubation; for IC50: read-out: Human cancer cell lines IC50, A549 (Lung)
Procedure: (§1) The benzylidene analogues were evaluated by Sulphorhodamine B Assay as per reported method [Skehan et al., J. Natl. Cancer Inst. 1990, 82, 1107]. The human cancer cell lines procured from National Cancer institute, Frederick, U.S.A. were used in present study. Cells were grown in tissue culture flasks in complete growth medium (RPMI-1640 medium with 2 mM glutamine, pH 7.4 supplemented with 10% fetal bovine serum, 100 μg/ml streptomycin and 100 units/ml penicillin) in a carbon dioxide incubator (37° C., 5% CO2, 90% RH). The cells at subconfluent stage were harvested from the flask by treatment with trypsin (0.05% in PBS (pH 7.4) containing 0.02% EDTA). Cells with viability of more than 98%, as determined by trypan blue exclusion, were used for determination of cytotoxicity. The cell suspension required concentration of cells was prepared in complete growth medium. Stock solution of 2×10^−2 M of compounds were prepared in DMSO and further dilution was carried out complete growth medium containing 50 μg/ml of gentamycin to obtained working test solution of required concentration. In vitro cytotoxicity against various human cancer cell lines was determined using 96-well cell culture plates. The 100 μl of cell suspension was added to each well of the 96-well cell culture plates. The cells were allowed to grow in CO2 incubator (37° C., 5% CO2, 90% RH) for 24 hours. The test materials in complete growth medium (100 μl) were added after 24 hours incubation to the wells containing cell suspension. The plates were further incubated for 48 hours (37° C. in an atmosphere of 5% CO2 and 90% relative humidity) in a carbon dioxide incubator after addition of test material and then the cell growth was stopped by gently layering trichloroacetic acid (50% TCA, 50 μl) on top of the medium in all the wells. The plates were incubated at 4° C. for one hour to fix the cells attached to the bottom of the wells. The liquid of all the wells was gently pipetted out and discarded. The plates were washed five times with distilled water to remove TCA, growth medium low molecular weight metabolites, serum proteins etc. and air-dried. Cell growth was measured by staining with sulforhodamine B dye. The adsorbed dye was dissolved in Tris-HCl Buffer (100 μl/well, 0.01M, pH 10.4) and plates were gently stirred for 10 minutes on a mechanical stirrer. The optical density (OD) was recorded on ELISA reader at 540 nm. 5-Fluorouracil, Paclitaxel (Taxol), Mitomycin-c and Adriamycin were used as positive controls.

[2] = system: PC-3 (prostate); assay: Sulphorhodamine B cytotoxicity assay, PC-3; format: cell-based, human; set-up: key to Human cancer cell lines IC50, PC-3 (prostate): Inactive: inactive, if IC50 > 100 μM; conditions: for IC50: Homo sapiens, read-out: Human cancer cell lines IC50, PC-3 (prostate); for IC50 / Human cancer cell lines IC50, PC-3 (prostate): SRB assay, 48 hours incubation
Procedure: as §1

[3] = system: HCT (Colon); assay: Sulphorhodamine B cytotoxicity assay, HCT; format: cell-based, human; set-up: key to Human cancer cell lines IC50, HCT (Colon): Inactive: inactive, if IC50 > 100 μM; conditions: for IC50 / Human cancer cell lines IC50, HCT (Colon): SRB assay, 48 hours incubation; for IC50: read-out: Human cancer cell lines IC50, HCT (Colon)
Procedure: as §1

[4] = system: THP-1 (Leukemia); assay: Sulphorhodamine B cytotoxicity assay, THP-1; format: cell-based, human; set-up: key to Human cancer cell lines IC50, THP-1 (Leukemia): Inactive: inactive, if IC50 > 100 μM; conditions: for IC50: read-out: Human cancer cell lines IC50, THP-1 (Leukemia)
Procedure: as §1

[5] = system: HeLa (Cervix); assay: Sulphorhodamine B cytotoxicity assay, HeLa; format: cell-based, human; set-up: key to Human cancer cell lines IC50, HeLa (Cervix): Inactive: inactive, if IC50 > 100 μM; conditions: for IC50 / Human cancer cell lines IC50, HeLa (Cervix): SRB assay, 48 hours incubation; for IC50: read-out: Human cancer cell lines IC50, HeLa (Cervix)
Procedure: as §1

[6] = system: MCF-7 (Breast cancer); assay: Sulphorhodamine B cytotoxicity assay, MCF-7; format: cell-based, human; set-up: key to Human cancer cell lines IC50, MCF-7 (Breast cancer): Inactive: inactive, if IC50 > 100 μM; conditions: for IC50: read-out: Human cancer cell lines IC50, MCF-7 (Breast cancer)
Procedure: as §1

[7] = system: DU-145 (prostate); assay: Sulphorhodamine B cytotoxicity assay, DU-145; format: cell-based, human; set-up: key to Human cancer cell lines IC50, DU-145 (prostate): Inactive: inactive, if IC50 > 100 μM; conditions: SRB assay, 48 hours incubation; for IC50: Homo sapiens, DU-145, read-out: Human cancer cell lines IC50, DU-145 (prostate)
Procedure: as §1

[8] = system: tubulin protein; assay: In-vitro tubulin polymerisation inhibition assay; format: biochemical; set-up: key to Tubulin polymerisation inhibition IC50: Inactive: inactive, if IC50 > 10 μM; conditions: for Tubulin polymerisation inhibition IC50 / IC50: tubulin 3 mg/mL, 37° C., 340 nm, 1 h; for IC50: read-out: Tubulin polymerisation inhibition IC50
Procedure: The tubulin polymerization experiment was performed using ‘assay kit’ (Cytoskeleton USA) following manufacturer's protocol based on the procedure described by of Shelanski et al. (1973) and Lee et al. (1977). Briefly, tubulin protein (3 mg/mL) in tubulin polymerization buffer (80 mM PIPES, pH 6.9, 2 mM MgCl2, 0.5 mM EGTA, 1 mM GTP and 15% glycerol) was placed in pre-warmed 96-well microtiter plates at 37° C. in the presence of test compounds with variable concentrations. All samples were mixed well and polymerization was monitored kinetically at 340 nm every min for 1 h using a Spectramax plate reader. Podophyllotoxin and etoposide were used as positive controls and DMSO as negative control. The IC50 value was determined from dose-dependent analysis and is defined as the concentration that inhibits the rate of polymerization by 50%.
Podophyllotoxin and etoposide, standard tubulin polymerisation inhibitors were used as positive controls.

[9] = Homo sapiens, THP-1, SRB assay, 48 hours incubation
[10] = Homo sapiens, MCF7, SRB assay, 48 hours incubation

## COc1cc(C2C(=Cc3ccccc3)C(=O)c3cc(OC)c(OC)c(OC)c32)cc(OC)c1OC (centres unmarked) [Compound 14, 2-benzylidene, 3-(3′,4′,5′-trimethoxyphenyl)-4,5,6-trimethoxy indan-1-one]
[1]; Homo sapiens, A549
  IC50: 47.5 µM
[2]
  IC50: 50.6 µM
[3]; Homo sapiens
  IC50: 14.9 µM
[4]; [9]
  IC50: 32.7 µM
[5]; Homo sapiens, HeLa
  IC50: 14.1 µM
[6]; [10]
  IC50: 42.5 µM
[7]
  Human cancer cell lines IC50, DU-145 (prostate): Inactive
[8]
  Tubulin polymerisation inhibition IC50: Inactive
other
  melting point: 139 to 141 °C

## COc1ccc(/C=C2\C(=O)c3cc(OC)c(OC)c(OC)c3C2c2cc(OC)c(OC)c(OC)c2)cc1OC (centres unmarked) [Compound 13, 2-(3″,4″-dimethoxybenzylidene), 3-(3′,4′,5′-trimethoxyphenyl)-4,5,6-trimethoxy indan-1-one]
[1]
  Human cancer cell lines IC50, A549 (Lung): Inactive
[2]
  Human cancer cell lines IC50, PC-3 (prostate): Inactive
[3]
  Human cancer cell lines IC50, HCT (Colon): Inactive
[4]; [9]
  IC50: 62 µM
[5]
  Human cancer cell lines IC50, HeLa (Cervix): Inactive
[6]; [10]
  IC50: 80.8 µM
[7]
  Human cancer cell lines IC50, DU-145 (prostate): Inactive
[8]
  inhibition of tubulin polymerisation, in words: strong inhibition
  IC50: 0.62 µM
other
  melting point: 179 to 180 °C

## COc1cc(C2/C(=C/c3cccc([N+](=O)[O-])c3)C(=O)c3cc(OC)c(OC)c(OC)c32)cc(OC)c1OC (centres unmarked) [Compound 12, 2-(3″-nitrobenzylidene),3-(3′,4′,5′-trimethoxyphenyl)-4,5,6-trimethoxy indan-1-one]
[1]
  Human cancer cell lines IC50, A549 (Lung): Inactive
[2]
  Human cancer cell lines IC50, PC-3 (prostate): Inactive
[3]
  Human cancer cell lines IC50, HCT (Colon): Inactive
[4]; SRB assay, 48 hours incubation
  Human cancer cell lines IC50, THP-1 (Leukemia): Inactive
[5]
  Human cancer cell lines IC50, HeLa (Cervix): Inactive
[6]; SRB assay, 48 hours incubation
  Human cancer cell lines IC50, MCF-7 (Breast cancer): Inactive
[7]
  Human cancer cell lines IC50, DU-145 (prostate): Inactive
[8]
  Tubulin polymerisation inhibition IC50: Inactive
other
  melting point: 215 to 217 °C

## COc1ccc(/C=C2\C(=O)c3cc(OC)c(OC)c(OC)c3C2c2cc(OC)c(OC)c(OC)c2)cc1 (centres unmarked) [Compound 10, 2-(4″-methoxybenzylidene),3(3′,4′,5′-trimethoxyphenyl)-4,5,6-trimethoxy indan-1-one]
[1]; Homo sapiens, A549
  IC50: 13.4 µM
[2]
  IC50: 65.7 µM
[3]; Homo sapiens
  IC50: 18.6 µM
[4]
  activity against leukemia cell lines (THP), in words: potent activity
[4]; [9]
  IC50: 0.88 µM
[5]; Homo sapiens, HeLa
  IC50: 21 µM
[6]
  anticancer activity against human breast cancer cells (MCF-7), in words: potent anticancer activity
[6]; [10]
  IC50: 3.18 µM
[7]
  IC50: 44.9 µM
[8]
  inhibition of tubulin polymerisation, in words: strong inhibition
  IC50: 4.67 µM
other
  melting point: 188 to 190 °C

## COc1cc(/C=C2\C(=O)c3cc(OC)c(OC)c(OC)c3C2c2cc(OC)c(OC)c(OC)c2)cc(OC)c1OC (centres unmarked) [Compound 9, 2-(3″,4″,5″-trimethoxybenzylidene), 3-(3′,4′,5′-trimethoxyphenyl)-4,5,6-trimethoxy indan-1-one]
[1]; Homo sapiens, A549
  IC50: 67.6 µM
[2]
  Human cancer cell lines IC50, PC-3 (prostate): Inactive
[3]; Homo sapiens
  IC50: 39.7 µM
[4]; [9]
  IC50: 64.9 µM
[5]; Homo sapiens, HeLa
  IC50: 82.3 µM
[6]; [10]
  IC50: 38.9 µM
[7]
  Human cancer cell lines IC50, DU-145 (prostate): Inactive
[8]
  inhibition of tubulin polymerisation, in words: strong inhibition
  IC50: 4.62 µM
other
  melting point: 118 to 120 °C

## COc1cc(C2/C(=C/c3ccc([N+](=O)[O-])cc3)C(=O)c3cc(OC)c(OC)c(OC)c32)cc(OC)c1OC (centres unmarked) [Compound 11, 2-(4″-nitrobenzlidene),3-(3′,4′,5′-trimethoxyphenyl)-4,5,6-trimethoxy indan-1-one]
[1]
  Human cancer cell lines IC50, A549 (Lung): Inactive
[2]
  Human cancer cell lines IC50, PC-3 (prostate): Inactive
[3]; Homo sapiens
  IC50: 97.3 µM
[4]; [9]
  IC50: 89.5 µM
[5]
  Human cancer cell lines IC50, HeLa (Cervix): Inactive
[6]; [10]
  IC50: 88.1 µM
[7]
  Human cancer cell lines IC50, DU-145 (prostate): Inactive
[8]
  Tubulin polymerisation inhibition IC50: Inactive
other
  melting point: 190 to 192 °C

## COc1cccc2c1C(=O)c1c(O)c3c(c(O)c1C2=O)C[C@@](O)(C(=O)CO)C[C@@H]3O[C@H]1C[C@H](N)[C@H](O)[C@H](C)O1 [Adriamycin, reference compound]
[6]; Homo sapiens, MCF7, positive control at 1 μM
  inhibition at 1 µM: 65%

## COc1cc([C@@H]2c3cc4c(cc3[C@H](O)[C@H]3COC(=O)[C@H]23)OCO4)cc(OC)c1OC [Podophyllotoxin, reference compound]
[1]; Homo sapiens, A549
  IC50: < 1 µM
[2]
  IC50: 91.5 µM
[3]; Homo sapiens
  IC50: < 1 µM
[4]; [9]
  IC50: < 1 µM
[5]; Homo sapiens, HeLa
  IC50: < 1 µM
[6]; [10]
  IC50: < 1 µM
[7]
  IC50: 91.5 µM
[8]
  IC50: […]

## O=c1[nH]cc(F)c(=O)[nH]1 [5-Fluorouracil, reference compound]
[3]; Homo sapiens, positive control at 20 μM
  inhibition at 20 µM: 65%
[4]; Homo sapiens, THP-1, positive control at 20 μM
  inhibition at 20 µM: 74%
[5]; Homo sapiens, HeLa, positive control at 20 μM
  inhibition at 20 µM: 70%

## CO[C@@]12[C@H](COC(N)=O)C3=C(C(=O)C(C)=C(N)C3=O)N1C[C@@H]1N[C@@H]12 [Mitomycin-c, reference compound]
[2]; positive control at 1 μM
  % Inhibition, PC-3 (Prostate): 61%

## COc1cc([C@@H]2c3cc4c(cc3[C@@H](O[C@@H]3O[C@@H]5CO[C@@H](C)O[C@H]5[C@H](O)[C@H]3O)[C@H]3COC(=O)[C@H]23)OCO4)cc(OC)c1O [Etoposide, reference compound]
[1]; Homo sapiens, A549
  IC50: 5.4 µM
[2]
  Human cancer cell lines IC50, PC-3 (prostate): Inactive
[3]; Homo sapiens
  IC50: 6.5 µM
[4]; [9]
  IC50: < 1 µM
[5]; Homo sapiens, HeLa
  IC50: < 1 µM
[6]; [10]
  IC50: 1.5 µM
[7]
  Human cancer cell lines IC50, DU-145 (prostate): Inactive
[8]
  IC50: […]

## COc1ccccc1/C=C1\C(=O)c2cc(OC)c(OC)c(OC)c2C1c1cc(OC)c(OC)c(OC)c1 (centres unmarked) [Compound 19, 2-(2″-methoxybenzylidene), 3-(3′,4′,5′-trimethoxyphenyl)-4,5,6-trimethoxy indan-1-one]
[1]; Homo sapiens, A549
  IC50: 62.6 µM
[2]
  Human cancer cell lines IC50, PC-3 (prostate): Inactive
[3]
  Human cancer cell lines IC50, HCT (Colon): Inactive
[4]; [9]
  IC50: 29.3 µM
[5]
  Human cancer cell lines IC50, HeLa (Cervix): Inactive
[7]
  IC50: 21.5 µM
[8]
  Tubulin polymerisation inhibition IC50: Inactive
other
  melting point: 191 to 192 °C

## CC(=O)O[C@H]1C(=O)[C@@]2(C)[C@H]([C@H](OC(=O)c3ccccc3)[C@]3(O)C[C@H](OC(=O)[C@H](O)[C@@H](NC(=O)c4ccccc4)c4ccccc4)C(C)=C1C3(C)C)[C@]1(OC(C)=O)CO[C@@H]1C[C@@H]2O [Paclitaxel, reference compound]
[1]; Homo sapiens, A549, positive control at 1 μM
  inhibition at 1 µM: 69%
